Results: the NIST ThermoML archive (doi:10.1016/j.tca.2011.08.002)

What was measured:
[1] = 101 kPa, Liquid, Vibrating tube method
[2] = refractive index (Na D-line) (dimensionless); details: 101.33 kPa, Liquid, Standard Abbe refractometry
[3] = xn = mol fraction of the nth substance listed; details: 101 kPa, Liquid, Vibrating tube method, x1 = 1
[4] = refractive index (Na D-line) (dimensionless); xn = mol fraction of the nth substance listed; details: 101 kPa, Liquid, Standard Abbe refractometry, x1 = 1

CCCCCO [pentan-1-ol]
Details	mass density, [1] [kg/m3]	refractive index, [2]
288.15 K	818.282	1.41192
293.15 K	814.635	1.40994
298.15 K	810.968	1.40796
303.15 K	807.278	1.40595
308.15 K	803.558	1.40388
313.15 K	799.817	1.40189
318.15 K	796.001	1.39987
323.15 K	792.166	1.39776

CCC(C)O (centres undefined) [butan-2-ol] + C1CCC(NC2CCCCC2)CC1
Details	mass density, [3] [kg/m3]	refractive index, [4]
288.15 K	810.689	1.39951
293.15 K	806.646	1.39736
298.15 K	802.528	1.39515
303.15 K	798.326	1.39293
308.15 K	794.03	1.39064
313.15 K	789.632	1.38832
318.15 K	785.117	1.38596
323.15 K	780.515	1.38352

C1CCC(NC2CCCCC2)CC1 [N-cyclohexylcyclohexanamine]
Details	mass density, [1] [kg/m3]	refractive index, [2]
288.15 K	915.498	1.48636
293.15 K	911.705	1.48416
298.15 K	907.923	1.48198
303.15 K	904.144	1.47978
308.15 K	900.372	1.47761
313.15 K	896.608	1.47562
318.15 K	892.847	1.47347
323.15 K	889.089	1.47134

CC(C)(C)O [2-methylpropan-2-ol]
Details	mass density, 303.15 K [kg/m3]	mass density, 308.15 K [kg/m3]	mass density, 313.15 K [kg/m3]	mass density, 318.15 K [kg/m3]	mass density, 323.15 K [kg/m3]	refractive index, 303.15 K	refractive index, 308.15 K	refractive index, 313.15 K	refractive index, 318.15 K	refractive index, 323.15 K
[1]	775.412	770.193	764.884	759.488	754.015	–	–	–	–	–
[2]	–	–	–	–	–	1.38222	1.37947	1.37667	1.37384	1.37097

CCCCO [butan-1-ol] + C1CCC(NC2CCCCC2)CC1
Details	mass density, [3] [kg/m3]	refractive index, [4]
288.15 K	813.373	1.40135
293.15 K	809.573	1.39932
298.15 K	805.762	1.3973
303.15 K	801.923	1.39523
308.15 K	798.053	1.39318
313.15 K	794.147	1.3911
318.15 K	790.231	1.38901
323.15 K	786.238	1.38688

CC(C)(C)O [2-methylpropan-2-ol] + C1CCC(NC2CCCCC2)CC1
Details	mass density, 303.15 K [kg/m3]	mass density, 308.15 K [kg/m3]	mass density, 313.15 K [kg/m3]	mass density, 318.15 K [kg/m3]	mass density, 323.15 K [kg/m3]	refractive index, 303.15 K	refractive index, 308.15 K	refractive index, 313.15 K	refractive index, 318.15 K	refractive index, 323.15 K
[3]	775.412	770.193	764.884	759.488	754.015	–	–	–	–	–
[4]	–	–	–	–	–	1.38222	1.37947	1.37667	1.37384	1.37097

CCCO [propan-1-ol]
Details	mass density, [1] [kg/m3]	refractive index, [2]
288.15 K	807.69	1.38785
293.15 K	803.703	1.38578
298.15 K	799.692	1.38364
303.15 K	795.65	1.38153
308.15 K	791.576	1.37929
313.15 K	787.466	1.37702
318.15 K	783.309	1.37483
323.15 K	779.095	1.37252

CCC(C)O (centres undefined) [butan-2-ol]
Details	mass density, [1] [kg/m3]	refractive index, [2]
288.15 K	810.689	1.39951
293.15 K	806.646	1.39736
298.15 K	802.528	1.39515
303.15 K	798.326	1.39293
308.15 K	794.03	1.39064
313.15 K	789.632	1.38832
318.15 K	785.117	1.38596
323.15 K	780.515	1.38352

CCCCO [butan-1-ol]
Details	mass density, [1] [kg/m3]	refractive index, [2]
288.15 K	813.373	1.40135
293.15 K	809.573	1.39932
298.15 K	805.762	1.3973
303.15 K	801.923	1.39523
308.15 K	798.053	1.39318
313.15 K	794.147	1.3911
318.15 K	790.231	1.38901
323.15 K	786.238	1.38688

CCCCCO [pentan-1-ol] + C1CCC(NC2CCCCC2)CC1
Details	mass density, [3] [kg/m3]	refractive index, [4]
288.15 K	818.282	1.41192
293.15 K	814.635	1.40994
298.15 K	810.968	1.40796
303.15 K	807.278	1.40595
308.15 K	803.558	1.40388
313.15 K	799.817	1.40189
318.15 K	796.001	1.39987
323.15 K	792.166	1.39776

CCCO [propan-1-ol] + C1CCC(NC2CCCCC2)CC1
Details	mass density, [3] [kg/m3]	refractive index, [4]
288.15 K	807.69	1.38785
293.15 K	803.703	1.38578
298.15 K	799.692	1.38364
303.15 K	795.65	1.38153
308.15 K	791.576	1.37929
313.15 K	787.466	1.37702
318.15 K	783.309	1.37483
323.15 K	779.095	1.37252
